# Experiments:
# human CARM1 (PRMT4) = human CARM1 (PRMT4) (Homo sapiens (Human), UniProt Q86X55); assay: CARM1 enzyme assay on peptide substrate (3H-SAM Flashplate); settings: Biochemical potencies, read-out: Biochem IC50
# Excerpt: S-adenosylmethionine (SAM), S-adenosylhomocysteine (SAH), bicine, Tween20, dimethylsulfoxide (DMSO), bovine skin gelatin (BSG), sodium butyrate and Tris(2-carboxyethyl)phosphine hydrochloride solution (TCEP) were purchased from Sigma-Aldrich at the highest level of purity possible. ^3H-SAM was purchase from American Radiolabeled Chemicals with a specific activity of 80 Ci/mmol. 384-well streptavidin Flashplates were purchased from PerkinElmer.
# Peptide representative of human histone H3 residues 16-30 was synthesized with an N-terminal linker-affinity tag motif and a C-terminal amide cap by 21st Century Biochemicals. […] The sequence was Biot-Ahx-[…]-amide and contained a monomethylated arginine at position 26 (SEQ ID NO.:1).
# The gene sequence encoding isoform 1 containing a deletion of amino acids 539-561 was amplified subsequently and subcloned into pFastBacMam (Viva Biotech).
# Recombinant baculovirus were generated according to Bac-to-Bac kit instructions (Life Technologies). Protein over-expression was accomplished by infecting exponentially growing HEK 293F cell culture at 1.3×10^6 cell/ml with virus (MOI=10) in the presence of 8 mM sodium butyrate. Infections were carried out at 37° C. for 48 hours, harvested by centrifugation, and stored at −80° C. for purification.
# Expressed full-length human Flag- and His-tagged CARM1 protein was purified from cell paste by anti-flag M2 affinity chromatography with resin equilibrated with buffer containing 20 mM Tris, 150 mM NaC, 5% glycerol, pH 7.8. Column was washed with 500 mM NaCl in buffer A and Flag-CARM1-His was eluted with 200 ug/ml FLAG peptide in buffer A. Pooled fractions were dialyzed in 20 mM Tris, 150 mM NaCl, 5% glycerol and 1 mM DTT, pH 7.8.
# The assays were all performed in a buffer consisting of 20 mM Bicine (pH=7.6), 1 mM TCEP, 0.005% BSG, and 0.002% Tween 20, prepared on the day of use. Compounds in 100% DMSO (1 ul) were spotted into a polypropylene 384-well V-bottom plates (Greiner) using a Platemate Plus outfitted with a 384-channel head (Thermo Scientific). DMSO (1 ul) was added to Columns 11, 12, 23, 24, rows A-H for the maximum signal control and 1 ul of SAH, a known product and inhibitor of CARM1, was added to columns 11, 12, 23, 24, rows I-P for the minimum signal control. A cocktail (40 ul) containing the CARM1 enzyme was added by Multidrop Combi (Thermo-Fisher). The compounds were allowed to incubate with CARM1 for 30 min at room temperature, then a cocktail (10 ul) containing ^3H-SAM and peptide was added to initiate the reaction (final volume=51 ul). The final concentrations of the components were as follows: CARM1 was 0.25 nM, ^3H-SAM was 30 nM, peptide was 250 nM, SAH in the minimum signal control wells was 1 mM, and the DMSO concentration was 2%. The assays were stopped by the addition of non-radiolabeled SAM (10 ul) to a final concentration of 300 uM, which dilutes the ^3H-SAM to a level where its incorporation into the peptide substrate is no longer detectable. 50 ul of the reaction in the 384-well polypropylene plate was then transferred to a 384-well Flashplate and the biotinylated peptides were allowed to bind to the streptavidin surface for at least 1 hour before being washed once with 0.1% Tween20 in a Biotek ELx405 plate washer. The plates were then read in a PerkinElmer TopCount plate reader to measure the quantity of ^3H-labeled peptide bound to the Flashplate surface, measured as disintegrations per minute (dpm) or alternatively, referred to as counts per minute (cpm).
# The Hill Coefficient normally allowed to float but may also be fixed at 1 in a 3-parameter fit.
# [1] = tested on: asymmetric di-methyl PABP1 in RKO cells; assay: RKO methylation assay, In Cell Western (ICW) for asymmetric di-methyl PABP1; assay type: cell-based; settings: Cellular potencies, ICW PABP1me2a
# Summary of the method: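 RKO cells treated with compound for 48 h at 37 °C, then fixed, permeabilized and immunostained for asymmetric di-methyl PABP1, with DRAQ5 as DNA stain. Infrared 700/800 nm signal ratio normalized to DMSO and 20 μM reference-compound controls; IC50 from triplicate wells.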
# Sequence of human CARM1 (PRMT4) (Q86X55 other isoform, or with tags, fused parts or gaps isoform Q86X55-1): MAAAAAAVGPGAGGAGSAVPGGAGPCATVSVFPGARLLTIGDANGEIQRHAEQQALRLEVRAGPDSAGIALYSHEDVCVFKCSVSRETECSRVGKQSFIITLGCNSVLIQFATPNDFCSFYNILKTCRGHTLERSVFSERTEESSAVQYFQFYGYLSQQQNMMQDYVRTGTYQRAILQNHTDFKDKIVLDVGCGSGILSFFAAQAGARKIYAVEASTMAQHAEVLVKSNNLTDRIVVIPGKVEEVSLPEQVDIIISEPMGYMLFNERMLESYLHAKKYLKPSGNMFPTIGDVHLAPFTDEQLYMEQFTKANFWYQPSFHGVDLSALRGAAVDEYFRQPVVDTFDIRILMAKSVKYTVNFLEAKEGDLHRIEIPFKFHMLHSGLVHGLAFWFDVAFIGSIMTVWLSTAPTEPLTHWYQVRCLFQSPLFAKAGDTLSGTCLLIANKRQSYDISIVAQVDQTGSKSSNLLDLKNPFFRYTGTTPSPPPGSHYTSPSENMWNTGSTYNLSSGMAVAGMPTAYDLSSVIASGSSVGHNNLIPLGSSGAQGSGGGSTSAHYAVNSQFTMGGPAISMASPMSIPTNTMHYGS
IC50 (human CARM1 (PRMT4)) [µM],"IC50 ([1]; Homo sapiens, RKO) [µM]",IC50 [1] [µM],SMILES
0.1 to 1,10 to 20,,CNCC(O)COc1cccc(-c2nc(N3CCN(CC(F)F)[C@@H](C)C3)cc(N(C)C3CCOCC3)n2)c1 (stereo partly shown) [Example 595-1a]
0.1 to 1,5 to 10,,CNCC(O)COc1cccc(-c2nc(N[C@@H]3CCOC3)c(C)c(-c3ccnn3C)n2)c1 (stereo partly shown) [Example 337-1a]
3 to 10,10 to 20,,CNCC(O)COc1cccc(-c2nc(N[C@@H]3CCOC3)c(C)c(C(=O)N3CCOCC3)n2)c1 (stereo partly shown) [Example 403-1a]
0.1 to 1,≥ 20,,CNCC(O)COc1cccc(-c2nc(NC3CCOCC3)c(C)c(-c3c(C)n[nH]c3C)n2)c1 (stereo not shown) [Example 661-1a]
0.1 to 1,≥ 20,,CNCC(O)COc1cccc(-c2nc(NCCOC)cc(C3=CCCC3)n2)c1 (stereo not shown) [Example 667-1a]
0.1 to 1,≥ 20,,CNCC(O)COc1cccc(-c2nc(NC3CCCC3)c(C)c(N3CCOCC3)n2)c1 (stereo not shown) [Example 683-1a]
0.1 to 1,10 to 20,,CNCC(O)COc1cccc(-c2nc(Nc3c(C)noc3C)cc(N(C)C3CCOCC3)n2)c1 (stereo not shown) [Example 597-1a]
0.1 to 1,10 to 20,,CNCC(O)COc1cccc(-c2nc(N[C@@H]3CCOC3)c(C)c(-c3ccnc(NC)c3)n2)c1 (stereo partly shown) [Example 388-1a]
0.1 to 1,10 to 20,,CNCC(O)COc1cccc(-c2nc(C(=O)N(C)CC3CCOCC3)cc(-c3c(C)noc3C)n2)c1 (stereo not shown) [Example 46-1a]
0.1 to 1,10 to 20,,CNCC(O)COc1cccc(-c2nc(N3C[C@@H]4CCCN(C(C)=O)[C@@H]4C3)cc(N(C)C3CCOCC3)n2)c1 (stereo partly shown) [Example 539-1a]
0.1 to 1,10 to 20,,CNCC(O)COc1cccc(-c2nc(-c3ncc[nH]3)cc(N(C)C3CCOCC3)n2)c1 (stereo not shown) [Example 550-1a]
0.1 to 1,10 to 20,,CNCC(O)COc1cccc(-c2nc(N[C@@H]3CCOC3)c(C)c(N(C)Cc3ccccn3)n2)c1 (stereo partly shown) [Example 393-1a]
1 to 3,10 to 20,,CNCC(O)COc1cccc(-c2nc(NC3CCOCC3)cc(N(C3CCOCC3)C3CC3)n2)c1 (stereo not shown) [Example 605-1a]
0.1 to 1,10 to 20,,CNCC(O)COc1cccc(-c2nc(N[C@@H]3CCOC3)c(C)c(-c3ccnnc3)n2)c1 (stereo partly shown) [Example 459-1a]
0.1 to 1,< 5,,CCS(=O)(=O)N1CCN(c2cc(N(C)C3CCOCC3)nc(-c3cccc(OCC(O)CNC)c3)n2)C[C@@H]1C (stereo partly shown) [Example 497-1a]
0.1 to 1,10 to 20,,CNCC(O)COc1cccc(-c2nc(N3CC[C@H](N(C)C(C)=O)C3)cc(N(C)C3CCOCC3)n2)c1 (stereo partly shown) [Example 547-1a]
0.1 to 1,5 to 10,,CNC[C@@H](O)COc1cccc(-c2nc(N[C@@H]3CCOC3)c(C)c(-c3cn(S(C)(=O)=O)c4ncncc34)n2)c1 [Example 453-1a]
0.1 to 1,5 to 10,,CNCC(O)COc1cccc(-c2nc(N[C@@H]3CCOC3)c(F)c(N3CCOCC3)n2)c1 (stereo partly shown) [Example 433-1a]
0.1 to 1,10 to 20,,CNCC(O)COc1cccc(-c2nc(N[C@@H]3CCOC3)c(C)c(-c3ccnc(N(C)C)c3)n2)c1 (stereo partly shown) [Example 389-1a]
0.1 to 1,≥ 20,,CNCC(O)COc1cccc(-c2nc(NC3CCOCC3)cc(-c3c(C)n[nH]c3C)n2)c1 (stereo not shown) [Example 670-1a]
0.1 to 1,5 to 10,,CNCC(O)COc1cccc(-c2nc(N3CCN(S(C)(=O)=O)[C@@H](C)C3)cc(N(C)C3CCOCC3)n2)c1 (stereo partly shown) [Example 520-1a]
0.1 to 1,10 to 20,,CNCC(O)COc1cccc(-c2nc(N[C@@H]3CCOC3)c(C3CC3)c(N3CCOCC3)n2)c1 (stereo partly shown) [Example 413-1a]

IC50 (human CARM1 (PRMT4)) [µM],"IC50 ([1]; Homo sapiens, RKO) [µM]",IC50 [1] [µM],SMILES
0.1 to 1,10 to 20,,CNCC(O)COc1cccc(-c2nc(N[C@@H]3CCOC3)c(C)c(-c3cc[nH]n3)n2)c1 (stereo partly shown) [Example 349-1a]
0.1 to 1,≥ 20,,CNCC(O)COc1cccc(-c2nc(NCCOC)cc(-c3ccc(C(F)(F)F)nc3)n2)c1 (stereo not shown) [Example 636-1a]
0.1 to 1,10 to 20,,CNCC(O)COc1cc(OC)cc(-c2nc(NC3CCOC3)c(C)c(N3CCN(C(C)=O)[C@@H](C)C3)n2)c1 (stereo partly shown) [Example 432-1a]
0.1 to 1,10 to 20,,CCc1c(N[C@@H]2CCOC2)nc(-c2cccc(OCC(O)CNC)c2)nc1N1CCOCC1 (stereo partly shown) [Example 404-1a]
0.1 to 1,10 to 20,,CNCC(O)COc1cccc(-c2nc(N[C@H]3C[C@H](C(=O)O)C3)c(C)c(-c3c(C)noc3C)n2)c1 (stereo partly shown) [Example 222-1a]
0.1 to 1,10 to 20,,CNCC(O)COc1cccc(-c2nc(-c3c(C)ncnc3C)cc(N(C)C3CCOCC3)n2)c1 (stereo not shown) [Example 556-1a]
1 to 3,10 to 20,,CNCC(O)COc1cccc(-c2nc(C(=O)N(C)C)cc(-c3c(C)noc3C)n2)c1 (stereo not shown) [Example 63-1a]
0.1 to 1,,10 to 20,CNCC(O)COc1cccc(-c2nc(N[C@H]3CO[C@H]4OCC[C@H]43)c(C)c(N3CCOCC3)n2)c1 (stereo partly shown) [Example 673-1a]
0.1 to 1,5 to 10,,CNCC(O)COc1cccc(-c2nc(N3CCN(C(C)=O)C4(CC4)C3)cc(N(C)C3CCOCC3)n2)c1 (stereo not shown) [Example 523-1a]
1 to 3,10 to 20,,CNCC(O)COc1cccc(-c2nc(-c3nc[nH]c3C)cc(N(C)C3CCOCC3)n2)c1 (stereo not shown) [Example 603-1a]
0.1 to 1,5 to 10,,CNCC(O)COc1cccc(-c2nc(C3CCN(C(=O)N(C)C)CC3)cc(N(C)C3CCOCC3)n2)c1 (stereo not shown) [Example 515-1a]
0.1 to 1,10 to 20,,CNCC(O)COc1cccc(-c2nc(-c3ccn4cnnc4c3)c(C)c(-c3c(C)noc3C)n2)c1 (stereo not shown) [Example 37-1a]
0.1 to 1,5 to 10,,CNCC(O)COc1cccc(-c2nc(C3CCN(C(=O)OC)CC3)cc(N(C)C3CCOCC3)n2)c1 (stereo not shown) [Example 533-1a]
0.1 to 1,≥ 20,,CNCC(O)COc1cccc(-c2nc(NCCOC)cc(-c3ccc4c(c3)OCCO4)n2)c1 (stereo not shown) [Example 628-1a]
0.1 to 1,10 to 20,,CNCC(O)COc1cccc(-c2nc(OC)c(C)c(-c3c(C)noc3C)n2)c1 (stereo not shown) [Example 83-1a]
0.1 to 1,10 to 20,,CNCC(O)COc1cccc(-c2nc(N[C@@H]3CCOC3)c(C)c(-c3cnc(=O)[nH]c3)n2)c1 (stereo partly shown) [Example 357-1a]
0.1 to 1,10 to 20,,CNCC(O)COc1cccc(-c2nc(-c3c(C)noc3C)c(C)c(-c3nc(C)cn3C)n2)c1 (stereo not shown) [Example 130-1a]
0.1 to 1,10 to 20,,CNCC(O)COc1cccc(-c2nc(N[C@@H]3CCOC3)cc(N3CCOCC3)n2)c1 (stereo partly shown) [Example 387-1a]
0.1 to 1,≥ 20,,CNCC(O)COc1cccc(-c2nc(NC3CCOCC3)c(C)c(-c3c(C)nn(C)c3C)n2)c1 (stereo not shown) [Example 678-1a]
3 to 10,≥ 20,,CNCC(O)COc1cccc(-c2nc(NC3CCN(C(=O)OC)CC3)c(C)c(-c3c(C)noc3C)n2)c1Cl (stereo not shown) [Example 107-3]
0.1 to 1,≥ 20,,CNCC(O)COc1cccc(-c2nc(NC3CCNCC3)cc(-c3ccncc3)n2)c1 (stereo not shown) [Example 666-1a]

SMILES,IC50 (human CARM1 (PRMT4)) [µM],"IC50 ([1]; Homo sapiens, RKO) [µM]",IC50 [1] [µM]
CNCC(O)COc1cccc(-c2nc(-c3ccncc3)cc(N(C)C3CCN(C)CC3)n2)c1 (stereo not shown) [Example 674-1a],0.1 to 1,≥ 20,

# Source: patent publication US10633389B2, “CARM1 inhibitors and uses thereof” (Epizyme, Inc., priority 2013, dated 2020)
